Experimental data as given in article PMC11653702, “Targeting the SPC25/RIOK1/MYH9 Axis to Overcome Tumor Stemness and Platinum Resistance in Epithelial Ovarian Cancer” (Advanced Science, 2024).
Peptide text beside a SMILES is read from it.

Key:
SPC25 = target: T1, SPC25 (Homo sapiens, UniProt Q9HBM1); assay: Surface plasmon resonance, CBP1 binding to SPC25; settings: SPR, BIAcore T200, CBP1 binding to SPC25; read-out: dissociation constant Kd
T1 sequence (Q9HBM1 1-224): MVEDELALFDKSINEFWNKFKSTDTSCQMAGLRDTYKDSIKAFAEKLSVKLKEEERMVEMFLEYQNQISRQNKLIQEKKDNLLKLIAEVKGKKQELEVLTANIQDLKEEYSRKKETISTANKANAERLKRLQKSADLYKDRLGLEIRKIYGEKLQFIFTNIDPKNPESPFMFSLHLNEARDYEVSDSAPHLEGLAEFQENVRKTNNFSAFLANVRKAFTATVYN
Description: Analysis of Surface Plasmon Resonance: Analysis of Surface Plasmon Resonance Binding kinetics between SPC25 and the indicated peptide-CBP1 were measured by Surface Plasmon Resonance (SPR) using a BIAcore T200 instrument (GE Healthcare, CA, USA). The dissociation constant (Kd) was calculated according to the BIA-evaluation software.

[1] = Survival of non-tumor-bearing mice on CBP1; format: in vivo, BALB/c-Nude mice; parameters: key to Survival status: 0: Alive; 1: Dead; settings: for Survival status / Survival time (Days after CDDP treatment): CBP1 10mg/kg; for Survival status: day 42; for Survival time (Days after CDDP treatment): alive at this day
[2] = tested on: EOC organoids (HGS-202, HGS-203, HGS-107); assay: Cell Counting Kit-8 assay in EOC patient-derived organoids; format: cell-based; settings: EOC organoids HGS-202, HGS-203, HGS-107, compared with controls
[3] = Serum urea, creatinine, alanine aminotransferase, aspartate aminotransferase (hepatorenal function); settings: for ALT / AST / CRE (creatinine) / UREA: mice under CBP1 treatment, after 6 weeks
Description: Subsequently, we established a BALB/c‐Nude mouse model of EOC by intraperitoneally injecting OVCAR8 cells stably expressing a luciferase gene, as described previously. On reaching a bioluminescence signal of 2 × 10^7 p/s/cm^2/sr, mice were divided into 4 treatment groups: Vehicle, CBP1, CDDP, and CDDP/CBP1 (n = 7 per group; Figure 5I).
H) Serum urea, creatinine, alanine aminotransferase, and aspartate aminotransferase levels in normal and CBP1-treated nude mice assessed to evaluate hepatorenal function. […] Error bars represent the means ± SD of independent experiments; ns denotes not significant. In (A) and (H), two-sided Student’s t test was used.

[4] = 10 mg/kg, i.p., once every 2 days, 6 weeks, BALB/c-Nude mice without tumors

Structure (SMILES): CC[C@H](C)[C@H](NC(=O)[C@H](Cc1ccc(O)cc1)NC(=O)[C@H](C)NC(=O)CNC(=O)CNC(=O)[C@H](Cc1c[nH]c2ccccc12)NC(=O)[C@@H]1CCCN1C(=O)[C@H](CO)NC(=O)[C@@H](NC(=O)[C@H](Cc1ccc(O)cc1)NC(=O)[C@H](CC(C)C)NC(=O)[C@@H](N)Cc1c[nH]cn1)C(C)C)C(=O)N1CCC[C@H]1C(=O)N[C@@H](CCCNC(=N)N)C(=O)N[C@H](C(=O)N[C@@H](CC(C)C)C(=O)N[C@@H](CC(N)=O)C(=O)N[C@@H](CCC(=O)O)C(=O)N[C@H](C(=O)N[C@@H](CCCCN)C(=O)N[C@@H](CC(N)=O)C(=O)N[C@@H](Cc1ccc(O)cc1)C(=O)N[C@@H](CCC(=O)O)C(=O)N[C@@H](CCCNC(=N)N)C(=O)O)C(C)C)[C@@H](C)O [CBP1] (H-HLYVSPWGGAYIPRTLNEVKNYER-OH)
- Kd (SPC25): 13.3 ± 2.88 µM
- effect on survival of normal mice [1, 4]: did not cause considerable hepatorenal toxicity or affect survival in the mice
- Survival status ([1]; animal 1): 0
- Survival status ([1]; animal 2): 0
- Survival status ([1]; animal 3): 0
- Survival status ([1]; animal 4): 0
- Survival status ([1]; animal 5): 0
- Survival status ([1]; animal 6): 0
- Survival status ([1]; animal 7): 0
- Survival time (Days after CDDP treatment) ([1]; animal 1): ≥ 42 days
- Survival time (Days after CDDP treatment) ([1]; animal 2): ≥ 42 days
- Survival time (Days after CDDP treatment) ([1]; animal 3): ≥ 42 days
- Survival time (Days after CDDP treatment) ([1]; animal 4): ≥ 42 days
- Survival time (Days after CDDP treatment) ([1]; animal 5): ≥ 42 days
- Survival time (Days after CDDP treatment) ([1]; animal 6): ≥ 42 days
- Survival time (Days after CDDP treatment) ([1]; animal 7): ≥ 42 days
- CDDP cytotoxicity in presence of CBP1 [2]: markedly enhanced CDDP cytotoxicity
- hepatorenal toxicity [3, 4]: did not cause considerable hepatorenal toxicity
- ALT ([3]; animal #1): 61.601 U/L
- AST ([3]; animal #1): 95.798 U/L
- CRE (creatinine) ([3]; animal #1): 0.334 mg/dL
- UREA ([3]; animal #1): 19.36 mg/dL
- ALT ([3]; animal #2): 48.846 U/L
- AST ([3]; animal #2): 169.051 U/L
- CRE (creatinine) ([3]; animal #2): 0.381 mg/dL
- UREA ([3]; animal #2): 24.41 mg/dL
- ALT ([3]; animal #3): 37.083 U/L
- AST ([3]; animal #3): 149.075 U/L
- CRE (creatinine) ([3]; animal #3): 0.362 mg/dL
- UREA ([3]; animal #3): 17.46 mg/dL
- ALT ([3]; animal #4): 56.136 U/L
- AST ([3]; animal #4): 97.689 U/L
- CRE (creatinine) ([3]; animal #4): 0.247 mg/dL
- UREA ([3]; animal #4): 15.11 mg/dL
- ALT ([3]; animal #5): 58.209 U/L
- AST ([3]; animal #5): 124.231 U/L
- CRE (creatinine) ([3]; animal #5): 0.314 mg/dL
- UREA ([3]; animal #5): 16.87 mg/dL
- ALT ([3]; animal #6): 57.394 U/L
- AST ([3]; animal #6): 120.889 U/L
- CRE (creatinine) ([3]; animal #6): 0.253 mg/dL
- UREA ([3]; animal #6): 21.13 mg/dL
- ALT ([3]; animal #7): 54.623 U/L
- AST ([3]; animal #7): 133.397 U/L
- CRE (creatinine) ([3]; animal #7): 0.252 mg/dL
- UREA ([3]; animal #7): 15.13 mg/dL
